Values of other authors in patent publication US20050214353A1, “Transdermal therapeutic system” (priority 2001, published 2005).

CCN(CC)C(=O)N[C@H]1C=C2c3cccc4[nH]cc(c34)C[C@H]2N(C)C1 [lisuride, 3-(9,10-didehydro-6-methyl-8α-ergolinyl)-1,1-diethyl urea]
half-life in the blood: ca. 2 hrs
